In the test the target is T1, α4β1 integrin (Homo sapiens, UniProt P05556+P13612).
T1 construct: Ramos cells fluorescently labeled with calcein; endogenous in cells; host or cells: Ramos cells
The experiment in a line: Inhibition of adhesion of calcein-labeled Ramos cells to CS1 (fibronectin) peptide-conjugated ovalbumin. It is filed as cell-based. As to conditions: for inhibition at 100 µM: Ramos, compound at a concentration of 100 μM, read-out: % A (percent inhibition of cell adhesion); for IC50: dose required to give 50% inhibition, Ramos cell adhesion to CS1-ovalbumin, 30 minutes at 37° C. As for the experimental part: The ability of compounds of the present invention to inhibit binding is described in detail hereinafter in the Examples by a procedure in which a 26-amino acid peptide containing the CS1 sequence of fibroncctin with an N-terminal Cys was coupled to maleimide activated ovalbumin. Ovalbumin and CS1 conjugated ovalbumin were coated onto 96-well polystyrene plates at 5 μg/ml in TBS (50 mM Tris, pH 7.5; 150 mM NaCl) at 4° C. for 16 hours. The plates were washed three times with TBS and blocked with TBS containing 3% BSA at room temperature for 4 hours. Blocked plates were washed three times in binding buffer (TBS; 1 mM MgCl2; 1 mM CaCl2; 1 mM MnCl2) prior to assay. Ramos cells fluorescently labeled with calcein AMC-3099 were resuspended in binding buffer (10^7 cells/ml) and diluted 1:2 with same buffer with or without compound. The cells were added immediately to the wells (2.5×10^5 cells/well) and incubated for 30 minutes at 37° C. Following three washes with binding buffer, adherent cells were lysed and quantitated using a fluorometer.
IC50 is defined as the dose required to give 50% inhibition. The lower the IC50 value and the greater the percentage of inhibition, the more efficient the compound is at prevention of cell adhesion. A stands for inhibition in Table 1, and the percent inhibition indicates the inhibition of cell adhesion when compound is included in the assay at a concentration of 100 μM.

As a reminder, the inhibition is the change of the read-out against control, counted positive when it falls. By IC50 is commonly meant the concentration needed to halve the response being measured.

T1 sequence (P13612 34-1032): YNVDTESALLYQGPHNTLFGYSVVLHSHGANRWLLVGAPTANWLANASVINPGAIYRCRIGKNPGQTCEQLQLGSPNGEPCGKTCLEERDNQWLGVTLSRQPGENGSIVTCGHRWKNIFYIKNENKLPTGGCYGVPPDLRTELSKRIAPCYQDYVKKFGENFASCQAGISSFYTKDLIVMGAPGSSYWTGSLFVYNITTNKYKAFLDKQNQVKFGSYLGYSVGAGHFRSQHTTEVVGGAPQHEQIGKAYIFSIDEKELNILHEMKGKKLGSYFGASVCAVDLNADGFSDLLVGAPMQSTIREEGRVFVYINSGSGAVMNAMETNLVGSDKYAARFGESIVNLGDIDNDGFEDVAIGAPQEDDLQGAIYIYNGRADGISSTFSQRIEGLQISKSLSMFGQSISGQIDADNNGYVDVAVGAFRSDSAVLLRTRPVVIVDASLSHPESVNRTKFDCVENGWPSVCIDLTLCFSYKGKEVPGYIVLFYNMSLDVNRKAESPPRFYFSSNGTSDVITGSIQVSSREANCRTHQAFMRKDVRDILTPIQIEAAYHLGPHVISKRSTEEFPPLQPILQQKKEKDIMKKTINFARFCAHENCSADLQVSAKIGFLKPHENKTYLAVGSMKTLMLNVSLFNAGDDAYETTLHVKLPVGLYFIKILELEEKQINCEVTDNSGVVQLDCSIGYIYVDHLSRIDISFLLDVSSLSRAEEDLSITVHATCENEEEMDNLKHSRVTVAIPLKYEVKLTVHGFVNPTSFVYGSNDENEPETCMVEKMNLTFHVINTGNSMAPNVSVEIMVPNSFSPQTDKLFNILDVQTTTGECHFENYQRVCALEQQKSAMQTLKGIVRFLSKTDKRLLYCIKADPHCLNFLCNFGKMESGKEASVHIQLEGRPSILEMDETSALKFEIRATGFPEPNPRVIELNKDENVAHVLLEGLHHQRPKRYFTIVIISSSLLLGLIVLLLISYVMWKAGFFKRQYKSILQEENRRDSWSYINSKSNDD
T1 sequence (P05556 21-798): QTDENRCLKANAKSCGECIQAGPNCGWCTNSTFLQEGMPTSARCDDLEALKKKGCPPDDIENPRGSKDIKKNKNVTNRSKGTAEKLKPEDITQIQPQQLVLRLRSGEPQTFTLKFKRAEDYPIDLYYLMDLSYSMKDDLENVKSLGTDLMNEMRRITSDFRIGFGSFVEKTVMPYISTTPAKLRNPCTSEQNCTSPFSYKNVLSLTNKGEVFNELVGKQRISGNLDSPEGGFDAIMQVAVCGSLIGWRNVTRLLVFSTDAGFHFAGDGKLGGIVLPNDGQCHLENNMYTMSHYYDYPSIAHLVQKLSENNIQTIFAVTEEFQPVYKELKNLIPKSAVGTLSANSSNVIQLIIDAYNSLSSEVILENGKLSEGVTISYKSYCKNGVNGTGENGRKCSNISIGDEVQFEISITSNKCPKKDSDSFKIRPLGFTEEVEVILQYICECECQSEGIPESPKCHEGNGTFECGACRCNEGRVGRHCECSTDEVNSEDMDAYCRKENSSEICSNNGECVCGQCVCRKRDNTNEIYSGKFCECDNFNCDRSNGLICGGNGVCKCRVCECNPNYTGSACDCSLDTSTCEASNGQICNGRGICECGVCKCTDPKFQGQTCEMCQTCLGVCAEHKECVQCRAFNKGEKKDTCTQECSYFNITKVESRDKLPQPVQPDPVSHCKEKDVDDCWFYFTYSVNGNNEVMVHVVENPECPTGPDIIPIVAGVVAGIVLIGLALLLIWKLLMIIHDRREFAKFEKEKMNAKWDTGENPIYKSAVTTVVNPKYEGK

Take `O=C(O)C[C@H](NC(=O)N[C@@H](COCc1ccccc1)CSc1ccccc1)c1ccc2c(c1)OCO2` [(3S)-3-(1,3-benzodioxol-5-yl)-3-{[({(1S)-2-(benzyloxy)-1-[(phenylthio)methyl]ethyl}amino)carbonyl]amino}propanoic acid]: where the note is “Table 1”, the inhibition at 100 µM was 100% and the IC50 is 300 nM.
For `O=C(O)C[C@H](NC(=O)N[C@@H](CSCCCc1ccccc1)CSc1ccccc1)c1ccc2c(c1)OCO2` [(3S)-3-(1,3-benzodioxol-5-yl)-3-{[({(1S)-2-[(3-phenylpropyl)sulfanyl]-1-[(phenylsulfanyl)methyl]ethyl}amino)carbonyl]amino}propanoic acid] the same measures were 100% and 2000 nM.
The corresponding values for `COc1ccc(CNC(=O)[C@@H](CC(C)C)NC(=O)NC(CC(=O)O)c2ccc3c(c2)OCO3)cc1` (stereo partly drawn) [3-(1,3-benzodioxol-5-yl)-3-({[((1R)-1-{[(4-methoxybenzyl)amino]carbonyl}-3-methylbutyl)amino]carbonyl}amino)propanoic acid] are 66% and 45000 nM.
For `CC(C)[C@H](CSCc1ccccc1)NC(=O)NC(CC(=O)O)c1ccc2c(c1)OCO2` (stereo partly drawn) [3-(1,3-benzodioxol-5-yl)-3-{[({(1R)-1-[(benzylsulfanyl)methyl]-2-methylpropyl}amino)carbonyl]amino}propanoic acid] the same measures were 83% and 40000 nM.
With `CC(C)C(NC(=O)N[C@@H](CC(=O)O)c1ccc2c(c1)OCO2)C(Sc1ccccc1)Sc1ccccc1` (stereo partly drawn) [(3S)-3-[({[1-{[bis-(phenylsulfanyl)]methyl}-2-methylpropyl]amino}carbonyl)amino]-3-[(3,4-methylenedioxy)phenyl]propanoic acid], for the setting “Table 1”, the inhibition at 100 µM is 95% and the IC50 was 35000 nM.
On to `CSCC[C@@H](CSc1cccc(N)c1)NC(=O)N[C@@H](CC(=O)O)c1ccc2c(c1)OCO2` [(3S)-3-[({[(1S)-1-{[(3-aminophenyl)thio]methyl}-3-(methylthio)propyl]amino}carbonyl)amino]-3-(1,3-benzodioxol-5-yl)propanoic acid], for which, under “Table 1”, the inhibition at 100 µM was 100% and the IC50 is 300 nM.
For `CSCC[C@@H](CSc1ccc(N)cc1)NC(=O)N[C@@H](CC(=O)O)c1ccc2c(c1)OCO2` [(3S)-3-[({[(1S)-1-{[(4-aminophenyl)sulfanyl]methyl}-3-(methylsulfanyl)propyl]amino}carbonyl)amino]-3-(1,3-benzodioxol-5-yl)propanoic acid] the same measures were 100% and 3000 nM.
For `CCCS(=O)(=O)Nc1cccc(SC[C@H](CCSC)NC(=O)N[C@@H](CC(=O)O)c2ccc3c(c2)OCO3)c1` [(3S)-3-(1,3-benzodioxol-5-yl)-3-{[({(1S)-3-(methylthio)-1-[({3-[(propylsulfonyl)amino]phenyl}thio)methyl]propyl}amino)carbonyl]amino}propanoic acid] the same measures were 100% and 500 nM.
For `CC(C)(C)OC(=O)C[C@H](NC(=O)N[C@@H](CC(=O)O)c1ccc2c(c1)OCO2)c1ccc2c(c1)OCO2` [(3S)-3-(1,3-benzodioxol-5-yl)-3-[({[(1S)-1-(1,3-benzodioxol-5-yl)-3-(tert-butoxy)-3-oxopropyl]amino}carbonyl)amino]propanoic acid] the same measures were 100% and 4000 nM.
With `CSCC[C@@H](CSc1ccc(Cl)cc1)NC(=O)N[C@@H](CC(=O)O)c1ccc2c(c1)OCO2` [(3S)-3-(1,3-benzodioxol-5-yl)-3-[({[(1S)-1-{[(4-chlorophenyl)sulfanyl]methyl}-3-(methylsulfanyl)propyl]amino}carbonyl)amino]propanoic acid], where the note is “Table 1”, the inhibition at 100 µM was 100% and the IC50 was 3000 nM.
For `O=C(O)C[C@H](NC(=O)N[C@@H](CCCCNC(=O)OCc1ccccc1)C(=O)NCCc1ccc(O)cc1)c1ccc2c(c1)OCO2` [(9S,13S)-13-(1,3-benzodioxol-5-yl)-9-{[(4-hydroxyphenethyl)amino]carbonyl}-3,11-dioxo-1-phenyl-2-oxa-4,10,12-triazapentadecan-15-oic acid] the same measures were 100% and 2000 nM.
For `O=C(O)C[C@H](NC(=O)N[C@@H](CCCO)CSc1ccccc1)c1ccc2c(c1)OCO2` [(3S)-3-(1,3-benzodioxol-5-yl)-3-{[({(1S)-4-hydroxy-1-[(phenylthio)methyl]butyl}amino)carbonyl]amino}propanoic acid] the same measures were 100% and 2000 nM.
The corresponding values for `Cc1ccccc1CNc1ccc(CNC(=O)[C@H](CCCCNC(=O)OCc2ccccc2)NC(=O)N[C@@H](CC(=O)O)c2ccc3c(c2)OCO3)cc1` [(9S,13S)-13-(1,3-benzodioxol-5-yl)-9-[({4-[(2-methylbenzyl)amino]benzyl}amino)carbonyl]-3,11-dioxo-1-phenyl-2-oxa-4,10,12-triazapentadecan-15-oic acid] are 100% and 0.4 nM.
With `CSCC[C@@H](CSc1cccc(NC(=O)Nc2ccccc2C)c1)NC(=O)N[C@@H](CC(=O)O)c1ccc2c(c1)OCO2` [(3S)-3-(1,3-benzodioxol-5-yl)-3-{[({(1S)-3-(methylsulfanyl)-1-[({3-[(2-toluidinocarbonyl)amino]phenyl}sulfanyl)methyl]propyl}amino)carbonyl]amino}propanoic acid], under “Table 1”, the inhibition at 100 µM is 100% and the IC50 was 2 nM.
The corresponding values for `O=C(O)C[C@H](NC(=O)N[C@@H](CSCC1CC1)CSc1ccccc1)c1ccc2c(c1)OCO2` [(3S)-3-(1,3-benzodioxol-5-yl)-3-{[({(1S)-2-[(cyclopropylmethyl)thio]-1-[(phenylthio)methyl]ethyl}amino)carbonyl]amino}propanoic acid] are 100% and 200 nM.
The corresponding values for `Cc1ccccc1NC(=O)Nc1ccc(CNC(=O)[C@H](CCCCNC(=O)OCc2ccccc2)NC(=O)N[C@@H](CC(=O)O)c2ccc3c(c2)OCO3)cc1` [(9S,13S)-13-(1,3-benzodioxol-5-yl)-3,11-dioxo-1-phenyl-9-[({4-[(2-toluidinocarbonyl)amino]benzyl}amino)carbonyl]-2-oxa-4,10,12-triazapentadecan-15-oic acid] are 100% and 0.3 nM.
The corresponding values for `CSCC[C@@H](CSc1ccc(NC(C)=O)cc1)NC(=O)N[C@@H](CC(=O)O)c1ccc2c(c1)OCO2` [(3S)-3-[({[(1S)-1-({[4-(acetylamino)phenyl]sulfanyl}methyl)-3-(methylsulfanyl)propyl]amino}carbonyl)amino]-3-(1,3-benzodioxol-5-yl)propanoic acid] are 100% and 3000 nM.
Consider `C=CCOC[C@@H](CSc1ccccc1)NC(=O)N[C@@H](CC(=O)O)c1ccc2c(c1)OCO2` [(3S)-3-{[({(1S)-2-(allyloxy)-1-[(phenylthio)methyl]ethyl}amino)carbonyl]amino}-3-(1,3-benzodioxol-5-yl)propanoic acid], for which, for the setting “Table 1”, the inhibition at 100 µM is 100% and the IC50 was 300 nM.
Turning to `CCCC[C@H](NC(=O)N[C@@H](CC(=O)O)c1ccc2c(c1)OCO2)C(=O)NCc1ccc(NS(=O)(=O)c2cccs2)cc1` [Compound 42, 3(3S)-3-(1,3-benzodioxol-5-yl)-3-([((1S)-1-[(4-(2-thienylsulfonamido)benzyl)amino]carbonylpentyl)amino]carbonylamino)propanoic acid], the IC50 (Table 2) was 60 nM.
With `CSCC[C@@H](CSc1ccc(NS(=O)(=O)Cc2ccccc2)cc1)NC(=O)N[C@@H](CC(=O)O)c1ccc2c(c1)OCO2` [(3S)-3-(1,3-benzodioxol-5-yl)-3-[({[(1S)-1-[({4-[(benzylsulfonyl)amino]phenyl}sulfanyl)methyl]-3-(methylsulfanyl)propyl]amino}carbonyl)amino]propanoic acid], for the setting “Table 1”, the inhibition at 100 µM was 100% and the IC50 is 300 nM.
For `CSCC[C@@H](CSc1cccc(C)c1)NC(=O)N[C@@H](CC(=O)O)c1ccc2c(c1)OCO2` [(3S)-3-(1,3-benzodioxol-5-yl)-3-[({[(1S)-1-{[(3-methylphenyl)sulfanyl]methyl}-3-(methylsulfanyl)propyl]amino}carbonyl)amino]propanoic acid] the same measures were 100% and 300 nM.
The corresponding values for `CSCC[C@@H](CSc1ccc(NS(=O)(=O)c2ccc(C)cc2)cc1)NC(=O)N[C@@H](CC(=O)O)c1ccc2c(c1)OCO2` [(3S)-3-(1,3-benzodioxol-5-yl)-3-[({[(1S)-1-{[(4-{[(4-methylphenyl)sulfonyl]amino}phenyl)sulfanyl]methyl}-3-(methylsulfanyl)propyl]amino}carbonyl)amino]propanoic acid] are 100% and 400 nM.
The corresponding values for `COC(=O)NCCCC[C@H](NC(=O)N[C@@H](CC(=O)O)c1ccc2c(c1)OCO2)C(=O)NCc1ccc(N)cc1` [(9S,13S)-9-{[(4-aminobenzyl)amino]carbonyl}-13-(1,3-benzodioxol-5-yl)-3,11-dioxo-2-oxa-4,10,12-triazapentadecan-15-oic acid] are 100% and 300 nM.
